Values quoted from earlier work, collected in patent US6270797A (USV Limited, priority 2000, dated 2001).

How the values were obtained:
[1] = system: beta cells of pancreatic-islet tissue

For Cc1cnc(C(=O)NCCc2ccc(S(=O)(=O)NC(=O)NC3CCCCC3)cc2)cn1 [Glipizide, 1-cyclohexyl-3-[[p-[2-(5-methylpyrazinecarboxamido)ethyl]phenyl]sulfonyl]urea], the “number of insulin receptors” value (insulin receptors) is listed as “may increase the number of insulin receptors” and the “insulin secretion from the beta cells of pancreatic-islet tissue” value [1] is listed as “stimulates insulin secretion”.
